Source: patent US20250177392A1, “BROAD SPECTRUM INHIBITORS OF CYTOMEGALOVIRUS” (MICROBIOTIX, INC., priority 2022, published 2025)

Key:
[1] = tested on: GpCMV 22122; experiment: Herpes virus panel neutralization, GpCMV; format: cell-based, Guinea pig cytomegalovirus
Experimental: To determine the specificity of MBX-4992, additional neutralization experiments were conducted using a panel of herpes viruses performed in the presence of MBX-4992. […] Collectively, the antiviral activity of MBX-4992 is equivalent to that of GCV indicating specific inhibition of CMV replication.

[2] = tested on: AD169^R CMV virus; experiment: Plaque reduction (dissemination) assay, prophylactic treatment; format: cell-based, Human cytomegalovirus
Experimental: (§1) FIG. 8A-H are fluorescence images (A & B) and graphs showing that NAPA compounds MBX-4992 and MBXC-4336 work in both prophylactic and therapeutic settings to inhibit HCMV infection. ARPE-19 cells (A to D) and NHDF cells (E and F) treated with increasing concentrations (0, 1, 5, 20, and 50 μM) of MBX-4992, MBXC-4336, or ganciclovir (2.5 μM) were infected with AD169^R (MOI 0.025) and analyzed for viral plaques of >5,000 μm^2 (C and E) and >10,000 μm^2 (D and F) based on GFP fluorescence. The representative images of plaques from AD169^R-infected ARPE-19 cells treated MBX-4992, MBXC-4336, ganciclovir are shown (A and B). MBX-4992, MBXC-4336 (G and H), and ganciclovir treatment at 48 hpi of AD169^R-infected ARPE-19 cells (MOI 0.025) were analyzed for virus plaques >5,000 μm^2 and >10,000 μm^2 at 10 dpi. The normalized plaque number was designated to be 100 based on plaques from DMSO treated cells. Statistical tests were performed using ordinary one-way ANOVA with multiple comparisons to DMSO treated cells as a control and a Dunnett's post-test; *, p<0.05; **, p<0.01; ***, p<0.001; ****, p<0.0001.
For the prophylactic treatment analysis, the plaque assay was performed on ARPE-19 and NHDF cells (4×10^4) in a 24-well plate. The cells were pretreated for 1 hour with either MBX-4992 or MBXC-4336 (1-50 μM), DMSO, or ganciclovir (2.5 μM) and followed by virus infection with AD169^R. Following a 2-hour incubation at 37° C., the inoculum was removed and cells were overlaid with 1% low melt sea agarose. Upon solidification of the agarose, MBX-4992, MBXC-4336, DMSO, or ganciclovir in media was added at the indicated concentration. The drugs were replaced every 3 days. The cells were examined using Brightfield and GFP fluorescence to quantify the number and size of virus plaques using a Celigo Cytometer at 10 dpi.
To address whether NAPA compounds can limit virus dissemination in epithelial cells, we analyzed the inhibitory properties of MBX-4992 and MBXC-4336 using a plaque reduction assay by designating a cluster of virus infected cells as a virus plaque (Parsons et al., Antivir. Res., 193:105124 (2021)) The results are shown in FIG. 8A-H.
To evaluate the prophylactic function of the NAPA compounds, ARPE-19 cells and NHDF cells treated with DMSO, MBX-4992, MBXC-4336 (0-50 μM), or ganciclovir (2.5 μM) were infected with AD169^R CMV virus and analyzed for virus plaques at 10 dpi based on GFP fluorescence (FIG. 8A-F). A cluster of virus infected cells was designated a viral plaque based on an average cluster area of 5,000 μm^2 or 10,000 μm^2 (FIG. 8A-B) using a Celigo cytometer.

[3] = tested on: AD169^R CMV virus; experiment: Plaque reduction assay, therapeutic treatment at 48 hpi; format: cell-based, Human cytomegalovirus; settings: Human betaherpesvirus 5, AD169, ARPE-19, read-out: IC50 of plaque reduction (>5,000 μm^2 and >10,000 μm^2)
Experimental: as §1
For therapeutic treatment, ARPE-19 cells (4×10^4) were plated in a 24-well plate. […] The cells were examined using brightfield and YFP fluorescence to quantify the number and plaques using the Celigo Cytometer at 14. […]

[4] = tested on: AD169^R (IE1 expression); experiment: Western blot (immunoblot) of IE1 expression in AD169^R-infected cells; format: cell-based, Human cytomegalovirus
Experimental: The molecular weight markers and respective proteins are indicated.
FIGS. 12A and B are Western Blot assays showing that MBXC-4336 limits expression of IE1 in fibroblasts and epithelial cells. Total cell lysates from AD169^R-infected (MOI 0.2) NHDF (A) and ARPE-19 (B) cells pre-treated with DMSO, MBX-4336 (0, 1, 5, 10, or 20 μM), or heparin (50 μg/mL) collected at 48 hpi were subjected to Western blot analysis using a rabbit anti-IE-1 antibody (lanes 1-7) and an anti-GAPDH antibody (lanes 8-14) as a loading control. The molecular weight markers and respective proteins are indicated.
Total cell lysates from virus infected NHDF cells treated with compounds were created through SDS-lysis (10^4/100 uL of 1% SDS) of at least three rounds of heating at 95° C. for 3 min and vigorous agitation. The total cell lysates were resolved using an SDS-polyacrylamide gel (12.5%), transferred to a PVDF membrane using a semi-dry apparatus. The membrane was then incubated with 1% BSA/PBS for 1 hr at room temperature followed by incubation with anti-IE1 and anti-GAPDH. Finally, the respective secondary antibody conjugated with HRP was incubated with membrane followed by detection using ECL reagents (Millipore).
Next, inhibition of the expression of IE1 in AD169^R-infected cells treated with MBX-4992 was examined by immunoblot analysis (FIG. 4E). […] Collectively, these findings further indicate that MBX-4992 effectively prevents the expression of the immediate-early genes during a CMV infection.

[5] = Human betaherpesvirus 5, AD169, ARPE-19, read-out: IC50 of virus plaque reduction
[6] = Human betaherpesvirus 5, AD169, Fibroblast, read-out: IC50 of virus plaque reduction

Row | SMILES | SI [1] | IC50 ([1]; Caviid betaherpesvirus 2) | IC50 [2, 5] | IC50 [2, 6] | IC50 [3] | IE1 expression by immunoblot ([4]; NHDF cells, 24 hpi, MBX-4992 1-10 μM, ganciclovir 5 μM, convallotoxin 0.01 μM) | IE1 expression by immunoblot ([4]; NHDF and ARPE-19 cells, 48 hpi (FIG. 12))
1 | Cc1nc(Nc2ccc(NC(=O)c3ccco3)cc2)cc(N2CCCC2)n1 [MBX-4992] | <4 | > 30 µM | 6.5 µM | 12 µM | ~9 µM | concentration dependent decrease in IE1 expression | –
2 | Cc1nc(Nc2cccc(NC(=O)c3ccco3)c2)cc(N2CCCCC2)n1 [MBXC-4336] | – | – | 1.7 µM | 4 µM | ~9 µM | – | effectiveness of MBXC-4336 was validated
